Each structure is given as a SMILES string.

In this assay the test system is Pseudomonas aeruginosa (ATCC 9027). Briefly: agar well diffusion assay (antimicrobial activity). The format is cell-based. As to conditions: ATCC9027, 100 μl of 100 mg/ml solution per well, 37° C., 24 hours of incubation, mean of three readings, read-out: zone of inhibition (diameter). From the text: Pseudomonas aeruginosa (ATCC 9027) strain was used as test organisms. The culture media, Nutrient Agar (NA), Nutrient Broth (NB) and Czapek Yeast Extract Agar (CYA) used for the growth of microorganisms, were purchased from Hi-Media. All other chemicals, including organic solvents used for the extraction of the plant metabolites, were of analytical grade.
The AP Extract 2, SX Extract 2, OS Extract 2, AP Extract 1, SX Extract 1 and OS Extract 1 were separately dissolved in 100% aqueous dimethylsulfoxide (DMSO) to obtain a final concentration of 100 mg/ml for each extract. 100 mg/ml solution of Chloramphenicol was prepared and used as a Positive control. Antimicrobial activity of the above mentioned extracts was determined, using the agar well diffusion assay method (Perez et al., 1990). Approximately 20 ml of molten and cooled media (NA and CYA) were poured in sterilized Petri dishes. The plates were left overnight at room temperature to check for any contamination to appear. The test organism was grown in nutrient broth for 24 hours. […]
Agar wells of 5 mm diameter were prepared with the help of a sterilized stainless steel cork borer. […] The antimicrobial activity of the extracts was taken on the basis of diameter of zone of inhibition, which was measured at cross-angles after 24 hours of incubation and the mean of three readings for each extract.
In general terms: In agar diffusion tests the substance spreads into inoculated agar from a disc or well.

As a reminder, the zone of inhibition is the extent of the growth-free halo in a diffusion test. As for `O=C(N[C@H](CO)[C@H](O)c1ccc([N+](=O)[O-])cc1)C(Cl)Cl` [positive standard, Chloramphenicol], the zone of inhibition at 100000 µg/mL was 40 mm.

The values are drawn from patent publication US8808769B2, “Method for extraction of fractions containing pharmacologically active ingredients with less cytotoxicity from one or more plants” (Bioved Pharmaceuticals, Inc., priority 2009, dated 2014).
